In series [1] the test system is LPS-induced TNFα production in rat splenocytes. Kind of series: LPS-induced TNFα production in rat mononuclear spleen cells (rTNFα splenocytes). It is filed as cell-based. To be noted: Splenocyte, LPS-stimulated TNFα release, rat splenocytes, average (SD). As to the method: (§1) • Human A2a and A2b receptor pharmacology: Chinese hamster ovary CHO-K1 cells stably expressing human A2a and A2b receptors were used to determine substances agonistic potency and intrinsic activity. […] The signal corresponding to adenosine at 100 μmol/L was used to define 100% intrinsic activity. • Human A3 receptor pharmacology: A3 receptor Gi coupling was measured by GTPγ ^35[S] filter assay at serial dilutions of compound using membranes from Perkin-Elmer. The signal corresponding to the maximal response of NECA at 100 μmol/L was set to 100% intrinsic activity. • Lipopolysaccharide (LPS)-induced TNFα production in primary human peripheral blood mononuclear cells (hTNFα PBMC) and rat mononuclears (rTNFα splenocytes): Human PBMC and rat mononuclear spleen cells were incubated with serial dilutions of compound and stimulated with LPS.
Procedures and assays were run in R10 buffer (RPMI 1640 Medium supplemented with GlutaMAX™ and HEPES (GIBCO-BRL), 10% fetal calf serum, penicillin and streptomycin (each 5000IU/ml)). Human PBMC were purified from heparinised blood by Ficoll separation (Ficoll, Amersham Pharmacia Biotech AB, Cat: 17-1440-03, Lot: 312170) and rat mononuclear cells were collected after rat spleen perfusion. Both cell preparations were followed by hypotonic lysis of residual erythrocytes. Serial dilutions of compounds were pre-incubated with 200 000 cells/well (96-well plate) for 45min in 37 °C (190µl). Cells were stimulated by 10µl LPS (final concentration 0.5ng/ml human and 150ng/ml rat; SIGMA Cat: L-4516, Lot: 104K4036) for 18h at 37 °C. TNFα release was measured by ELISA (^TmR&D Systems plates) according to the manufacturer’s instructions in cell free supernatant.

Series [2] in a line: Plasma protein binding by equilibrium dialysis. It is filed as in vitro ADME. The settings on record: male, Wistar, pH 7.4, rat plasma, 10 μmol/L, read-out: fu rat (free unbound drug in plasma). The procedure:
as §1
The plasma protein binding was determined in plasma from male Wistar rats at a compound concentration of 10μM by equilibrium dialysis against a phosphate buffer at pH 7.4 using a semi-permeable membrane with a molecular cut-off of 6-8KDa (Spectra/Por, Spectrum Laboratories Inc, US). The compounds were dialyzed for 18h at 37±1°C in an air incubator on an orbital shaker. The samples were analysed using LC-MS/MS.

Series [3] is described as follows: Lipophilicity (LogD), shake flask. It is filed as physicochemical. To be noted: octanol-water, phosphate buffer pH 7.4. As to the method:
as §1
The octanol-water partition coefficient (LogD) was measured using the shake flask method. 600µL of 1-octanol was added to a vial with 6µL of 10mM DMSO-solution of the test compound. 600µL of 10mM sodium phosphate buffer adjusted to pH 7.4 was added and equilibrium was performed by vigorous shaking for ten minutes with an Eppendorf mixer. The phases were separated by centrifugation. The samples were analysed by HPLC with UV-detection at 254nm.

Series [4] can be described thus: Substance solubility in phosphate buffer. To be noted: aqueous buffer, thermodynamic from solid; phosphate buffer pH 7.4, dry compound in solid state. It is filed as physicochemical. The procedure: as §1
Solubility was measured in phosphate buffer at pH 7.4 using dry compounds in solid state.

Series [5] can be described thus: In vivo pharmacokinetics in rats (i.v., oral, intratracheal). The procedure:
Rat PK was determined after an i.v. dose of 0.1μmol/kg (approximately 50μg/kg, 1ml/kg, TEG:H2O 50:50) given via a catheter in vena jugularis. The PK after oral administration was performed at a dose of 6μmol/kg (approximately 3mg/kg, 4ml/kg, 0.5% HPMC) given by gavage. Intratracheal PK was determined at 0.03 to 0.6μmol/kg (17 to 300μg/kg, 1ml/kg, in a vehicle containing sodium chloride (8.5mg/ml), EDTA (0.1mg/ml), citric acid (0.15mg/ml), sodium citrate (0.5mg/ml) and polysorbate 80 (0.2mg/mL) in purified water). The i.t. dose was given to anaesthetized (isofluran) rats, positioned at approximately 30° angle (head up) and the compound was administered in the trachea using a modified metal cannula. Rats were put back in their cages while regaining consciousness. Serial blood sampling of 100 to 200µl was performed after i.v. and p.o. dosing at pre-defined timepoints. Blood was mixed 1:4 with purified water containing heparin (10 to 30U/ml) in order to haemolyse the blood cells, and then placed in a 96-well plate and stored at –70°C until analysed. The dilution factor was accounted for in the data analysis. After i.t. dosing, animals were euthanized with isoflurane or pentobarbital at defined timepoints after dosing, blood samples taken from the vena jugularis or arteria carotis, handled and stored as described above. The rats were bled to drain as much blood as possible from the lungs. The lungs including the trachea were carefully dissected out with all non-relevant tissue removed, placed in pre-weighed vials and weighed. The lung vials were stored at –70°C until analyzed.
Lung tissue was frozen in liquid nitrogen and homogenised using a CryoPrep pneumatic hammer. The homogenisation of the tissue and the extraction of the compound were done in 4ml Ringer solution with an Adaptive Focused Acoustic Instrument. 50µl of the supernatant was transferred to a 96-well plate. All lung, blood and plasma samples were analysed by LC-MS/MS using a selective and sensitive method. Peak areas were used in comparison to those produced by the standard curve to determine parent compound concentrations. Homogenate concentrations were adjusted to account for the sample dilutions to give tissue concentrations.

Details of series [6]: method as in Mantell et al. [2009], [2010]. To be noted: over the dose range tested; ref Mantell et al. [2009], [2010]; cited from earlier work.
Series [7] relates to patients with COPD. Also on record: method as in Mantell et al. [2009], [2010]. To be noted: ref Mantell et al. [2009], [2010]; cited from earlier work.
Details of series [8]: method as in Mantell et al. [2010]. The settings on record: ref Mantell et al. [2010]; cited from earlier work.
The subject of series [9] is heart. The arrangement: method as in Macallum et al. [1991]. To be noted: oral, dog study; ref Macallum et al. [1991]; cited from earlier work.

Each structure is given as a SMILES string. Values after ≈ are worked out from the molar mass of the structure shown. Like-named read-outs stand apart in the source and are kept apart here.

As for `CCNC(=O)[C@H]1O[C@@H](n2cnc3c(NCC(c4ccccc4)c4ccccc4)nc(C(=O)NCCNC(=O)NC4CCN(c5ccccn5)CC4)nc32)[C@H](O)[C@@H]1O` [UK-432,097, 6-(2,2-diphenylethylamino)-9-[(2R,3R,4S,5S)-5-(ethylcarba-moyl)-3,4-dihydroxy-tetrahydrofuran-2-yl]-N-[2-[[1-(2-pyridyl)-4-piperidyl]carbamoylamino]ethyl]purine-2-carboxamide, reference compound], the IC50 in series [1] came to 2.6 nM. The Emax in series [1] (read-out: rTNFα splenocytes Intrinsic activity) stood at 60.9%. For the same compound, the fraction unbound at 18 h, 10 μM in [2] amounted to 0.014. The LogD in [3] amounted to 3.4. For the same compound, in series [4], the solubility came out at 12 µM (≈ 9.33 µg/mL). In addition, the Rat blood clearance in series [5] (i.v., mean of n = 3) is recorded as 37 mL/min per kg. For the same compound, the half-life in series [5] (lung, inhaled or intranasal, rat, intratracheal dosing, n = 2/time point, read-out: Lung t½ (terminal half-life in lung) (converted)) was 4 h. Further, the Kp at 24 h in series [5] (other: intratracheal (i.t.), rat, i.t., ratio of lung concentration 24 h after dose to blood Cmax after same dose, read-out: Lung/blood split) came to 2.7. In addition, in series [5] (rat, i.t. dose 130 μg/kg, 6 h), the “Percentage of dose remaining in lung at 6 h” value is listed as “approximately 3%”. Also, the “Safety in Phase I clinical study” value in series [6] is “no safety limitation”. The “Efficacy in Phase II study” value in [7] was “failed to show efficacy”. Further, in series [8], the Clearance entry was “rapid”, the Oral bioavailability entry is listed as “low”, the Plasma protein binding entry was “high” and the solubility result is reported as “low”.
As to `OC[C@H]1O[C@@H](n2cnc3c(NCC(c4ccccc4)c4ccccc4)ncnc32)[C@H](O)[C@@H]1O` [DPEA, N-(2,2-diphenylethyl) adenosine], the Myocardial findings entry in [9] was “myocardial degeneration and necrosis”.

The IC50 is the concentration that gives 50% inhibition. As a reminder, the LogD is lipophilicity at a set pH, counting ionised and neutral species. A word on the solubility: it is the dissolved amount per volume that the medium holds. The term half-life denotes how long it takes for the measured level to halve.
